Test results taken from article PMC3513969 (Evidence-based Complementary and Alternative Medicine : eCAM, 2012).

How the values were obtained:
[1] = Single dose escalation and multiple dosing pharmacokinetic study of LipoCol Forte; conditions: for AUC0–12/dose / AUC0–inf/dose / CL/F / Cmax/dose / Accumulation with multiple dosing / Dose linearity of pharmacokinetic properties (AUC, Cmax) / AUC(0-inf) / Cmax / MRT / Tmax / Vd/F: healthy subjects; for AUC0–12/dose / AUC0–inf/dose / CL/F / Cmax/dose / AUC(0-t) / AUC(0-inf) / Cmax / MRT / half-life / Tmax / Vd/F: fed, mean ± SD, n = 14; for Accumulation with multiple dosing: one LipoCol Forte capsule twice daily for 5 days; for Dose linearity of pharmacokinetic properties (AUC, Cmax): single dose of 1, 2 or 4 LipoCol Forte capsules; for AUC(0-t) / AUC(0-inf) / Cmax / MRT / half-life / Tmax / Vd/F: human, plasma, oral; for AUC(0-t): AUC0–12, healthy subjects; for AUC(0-inf): AUC0–inf; for half-life: T1/2, healthy subjects
Description: A high fat breakfast (including two eggs fried in butter, two strips of bacon, two slices of toast with butter, four ounces of hash brown potatoes, and eight ounces of whole milk) was provided 30 min before dosing. All doses were administered with 240 mL of water. […] A high fat breakfast or dinner was served 30 min before dosing. One capsule was administered with 240 mL of water. […] Within 30 min of collection, the samples were centrifuged at 2,600 g for 10 minutes at 4°C and the plasma transferred to labeled polypropylene tubes containing 50 μL of 17% phosphoric acid and stored at −80°C until analysis.
The pharmacokinetics were characterized, when appropriate, by the peak concentration in the plasma (C max⁡), time to reach the peak concentration (T max⁡), area under the plasma concentration versus time curve from time zero to the time of the last quantifiable concentration (AUC0−t), AUC from time zero to the time extrapolated to infinity (AUC0−inf⁡), half-life (T 1/2), mean residence time (MRT), apparent clearance (CL/F), and apparent volume of distribution (V d/F).

[2] = Pharmacokinetic interaction between gemfibrozil and LipoCol Forte; format: in vivo, human; conditions: for Effect of concomitant gemfibrozil on pharmacokinetic parameters (AUC, Cmax): one LipoCol Forte capsule, gemfibrozil 600 mg twice daily; for AUC(0-t): read-out: AUC0–12
Description: The volunteers were fasted overnight before dosing and a high fat breakfast or dinner was served 0.5 h after administration of gemfibrozil. […] Blood samples were prepared as described in the previous section (dose-escalation study).

P-gp = P-gp (Homo sapiens, UniProt P08183); format: cell-based; conditions: MDCK-MDR1 cells, 25 μM (extracts adjusted to 25 μM lovastatin)
Sequence of P-gp (P08183 whole entry): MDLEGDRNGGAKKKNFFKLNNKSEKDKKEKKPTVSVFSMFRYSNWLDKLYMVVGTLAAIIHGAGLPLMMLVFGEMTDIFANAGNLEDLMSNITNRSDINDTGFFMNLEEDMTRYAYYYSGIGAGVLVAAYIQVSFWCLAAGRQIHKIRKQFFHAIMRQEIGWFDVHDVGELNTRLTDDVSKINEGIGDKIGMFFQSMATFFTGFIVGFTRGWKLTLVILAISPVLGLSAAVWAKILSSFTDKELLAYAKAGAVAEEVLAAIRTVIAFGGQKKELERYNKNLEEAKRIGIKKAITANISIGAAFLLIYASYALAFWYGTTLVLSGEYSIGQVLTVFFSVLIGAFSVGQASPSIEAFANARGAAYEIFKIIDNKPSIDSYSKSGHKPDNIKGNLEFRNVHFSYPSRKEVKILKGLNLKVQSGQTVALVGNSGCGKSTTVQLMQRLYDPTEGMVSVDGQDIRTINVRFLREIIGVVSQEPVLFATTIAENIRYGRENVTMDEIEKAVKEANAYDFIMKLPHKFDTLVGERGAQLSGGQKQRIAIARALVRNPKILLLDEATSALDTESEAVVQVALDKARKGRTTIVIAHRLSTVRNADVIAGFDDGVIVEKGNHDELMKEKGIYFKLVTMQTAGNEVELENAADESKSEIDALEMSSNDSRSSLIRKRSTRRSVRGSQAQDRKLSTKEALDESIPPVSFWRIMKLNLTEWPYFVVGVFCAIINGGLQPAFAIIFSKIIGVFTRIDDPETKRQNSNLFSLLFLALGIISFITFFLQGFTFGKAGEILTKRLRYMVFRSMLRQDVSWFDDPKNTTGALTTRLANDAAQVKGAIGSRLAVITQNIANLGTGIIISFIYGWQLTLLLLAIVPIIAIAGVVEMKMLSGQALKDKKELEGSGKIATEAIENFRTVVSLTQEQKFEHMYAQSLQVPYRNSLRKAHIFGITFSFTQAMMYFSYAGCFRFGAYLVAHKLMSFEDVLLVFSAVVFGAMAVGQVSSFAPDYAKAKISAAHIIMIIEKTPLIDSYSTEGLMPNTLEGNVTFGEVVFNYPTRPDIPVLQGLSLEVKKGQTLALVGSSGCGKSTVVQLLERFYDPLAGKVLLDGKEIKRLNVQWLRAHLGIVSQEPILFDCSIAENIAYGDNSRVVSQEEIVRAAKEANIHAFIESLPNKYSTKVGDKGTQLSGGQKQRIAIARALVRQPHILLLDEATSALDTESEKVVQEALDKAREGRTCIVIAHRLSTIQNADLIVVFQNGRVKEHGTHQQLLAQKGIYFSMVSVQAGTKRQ
Description: MDCK-MDR1 cells (2.5 × 10^4 cells/cm^2) (from The Netherlands Cancer Institute) were cultured in polystyrene Nunclon multidishes under an atmosphere of 5% CO2/95% air. The minimal essential medium (MEM) (Invitrogen, CA, USA) contained 10% fetal bovine serum (Hyclone, UT, USA), 5.5 mM L-glutamine, 1.5 mg/mL of sodium bicarbonate, and 1 mM sodium pyruvate (all from Sigma, MO, USA), and 100 unit/mL of penicillin and 0.1 mg/mL of streptomycin (both from Invitrogen). […] The percentage of inhibition of P-gp activity and the IC50 values for P-gp inhibition were determined by the methods described by Rautio et al..

CYP2B6 = biological target: T1, CYP2B6 (Homo sapiens, UniProt P20813); experiment: Inhibition of CYP2B6 activity in human liver microsomes (hydroxybupropion/bupropion ratio); format: biochemical
T1 construct: Human liver microsomes (UltraPool HLM 150) were purchased from BD Biosciences; tissue BD Biosciences UltraPool HLM 150; host or cells: pooled human liver microsomes
T1 sequence (P20813 1-491): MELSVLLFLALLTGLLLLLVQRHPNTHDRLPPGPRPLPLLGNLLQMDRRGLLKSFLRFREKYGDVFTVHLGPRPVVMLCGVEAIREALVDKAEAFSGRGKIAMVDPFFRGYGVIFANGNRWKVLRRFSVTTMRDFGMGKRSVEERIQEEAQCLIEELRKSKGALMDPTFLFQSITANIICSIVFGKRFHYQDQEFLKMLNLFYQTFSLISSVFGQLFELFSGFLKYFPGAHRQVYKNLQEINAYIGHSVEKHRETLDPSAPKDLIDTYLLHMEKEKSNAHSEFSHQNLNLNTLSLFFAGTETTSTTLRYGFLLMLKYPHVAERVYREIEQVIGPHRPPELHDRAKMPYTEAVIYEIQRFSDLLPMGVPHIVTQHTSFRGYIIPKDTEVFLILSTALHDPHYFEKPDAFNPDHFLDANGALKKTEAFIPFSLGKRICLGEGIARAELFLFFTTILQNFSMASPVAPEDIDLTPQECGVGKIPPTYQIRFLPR

CYP2D6 = biological target: T2, CYP2D6 (Homo sapiens, UniProt P10635); experiment: Inhibition of CYP2D6 activity in human liver microsomes (dextrorphan/dextromethorphan ratio); format: biochemical
T2 construct: Human liver microsomes (UltraPool HLM 150) were purchased from BD Biosciences; tissue BD Biosciences UltraPool HLM 150; host or cells: pooled human liver microsomes
T2 sequence (P10635 whole entry): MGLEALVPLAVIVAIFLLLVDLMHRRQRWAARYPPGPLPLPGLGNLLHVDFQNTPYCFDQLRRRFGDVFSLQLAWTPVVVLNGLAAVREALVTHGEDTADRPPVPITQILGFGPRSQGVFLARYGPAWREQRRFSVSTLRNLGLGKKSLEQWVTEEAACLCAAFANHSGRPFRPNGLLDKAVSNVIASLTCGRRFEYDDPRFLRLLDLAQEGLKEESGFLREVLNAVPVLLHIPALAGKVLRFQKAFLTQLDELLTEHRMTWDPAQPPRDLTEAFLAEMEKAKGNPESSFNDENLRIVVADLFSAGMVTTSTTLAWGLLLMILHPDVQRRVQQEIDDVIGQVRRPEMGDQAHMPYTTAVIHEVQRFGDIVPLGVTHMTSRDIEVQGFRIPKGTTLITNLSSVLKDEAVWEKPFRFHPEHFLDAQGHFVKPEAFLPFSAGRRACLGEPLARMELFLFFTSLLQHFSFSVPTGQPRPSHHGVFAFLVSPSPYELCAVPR

CYP1A2 = biological target: T3, CYP1A2 (Homo sapiens, UniProt P05177); experiment: Inhibition of CYP1A2 activity in human liver microsomes (acetaminophen/phenacetin ratio); format: biochemical; conditions: extracts as lovastatin concentration, mean ± SEM, 3-4 preparations
T3 construct: Human liver microsomes (UltraPool HLM 150) were purchased from BD Biosciences; tissue BD Biosciences UltraPool HLM 150; host or cells: pooled human liver microsomes
T3 sequence (P05177 1-516): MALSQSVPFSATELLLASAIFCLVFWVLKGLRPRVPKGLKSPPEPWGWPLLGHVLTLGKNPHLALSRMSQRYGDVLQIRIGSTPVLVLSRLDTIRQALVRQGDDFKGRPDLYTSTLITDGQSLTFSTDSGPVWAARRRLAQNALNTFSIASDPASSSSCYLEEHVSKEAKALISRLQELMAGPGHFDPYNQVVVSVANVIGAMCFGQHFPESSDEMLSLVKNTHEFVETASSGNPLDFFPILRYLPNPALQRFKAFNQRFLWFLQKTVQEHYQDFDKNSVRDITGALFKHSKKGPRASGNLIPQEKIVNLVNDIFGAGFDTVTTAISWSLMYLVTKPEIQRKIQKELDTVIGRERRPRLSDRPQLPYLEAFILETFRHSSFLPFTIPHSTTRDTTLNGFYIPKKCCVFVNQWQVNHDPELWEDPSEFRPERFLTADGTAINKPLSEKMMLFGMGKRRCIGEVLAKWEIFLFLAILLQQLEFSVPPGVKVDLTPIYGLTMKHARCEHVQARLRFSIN

[3] = multiple doses one LipoCol Forte capsule BID for 5 days
[4] = single dose four LipoCol Forte capsules
[5] = single dose one LipoCol Forte capsule
[6] = single dose two LipoCol Forte capsules
[7] = 1 LipoCol Forte capsule, multiple doses one LipoCol Forte capsule BID for 5 days
[8] = 1 LipoCol Forte capsule, single dose one LipoCol Forte capsule
[9] = 2 LipoCol Forte capsules, single dose two LipoCol Forte capsules
[10] = 4 LipoCol Forte capsules, single dose four LipoCol Forte capsules
[11] = healthy subjects, single dose one LipoCol Forte capsule alone, mean ± SD, n = 13
[12] = healthy subjects, single dose one LipoCol Forte capsule with coadministration of 600 mg gemfibrozil twice daily, mean ± SD, n = 13
[13] = human, plasma, oral, 1 LipoCol Forte capsule
[14] = human, plasma, oral, 1 LipoCol Forte capsule, read-out: Tmax

In the case of `CC[C@H](C)C(=O)O[C@H]1C[C@@H](C)C=C2C=C[C@H](C)[C@H](CC[C@@H](O)C[C@@H](O)CC(=O)O)[C@H]21` [Lovastatin acid, lovastatin acid], the “AUC0–12/dose” value [1, 3] is reported as 5.69 ± 1.70, the “AUC0–inf/dose” value [1, 3] is reported as 5.92 ± 1.70 and the CL/F [1, 3] is reported as 192.3 ± 63.7 L/h. For the same molecule, the Cmax/dose [1, 3] was 1.41 ± 0.57, the “AUC0–12/dose” value [1, 4] was 6.94 ± 2.64 and the “AUC0–inf/dose” value [1, 4] was 7.42 ± 2.76. For the same molecule, the CL/F [1, 4] was 150.2 ± 45.9 L/h, the Cmax/dose [1, 4] was 1.59 ± 0.75 and the “AUC0–12/dose” value [1, 5] was 5.75 ± 2.30. For the same molecule, the “AUC0–inf/dose” value [1, 5] was 6.72 ± 2.85, the CL/F [1, 5] was 172.9 ± 68.1 L/h and the Cmax/dose [1, 5] was 1.37 ± 0.72. The “AUC0–12/dose” value [1, 6] was 6.94 ± 2.42, the “AUC0–inf/dose” value [1, 6] was 7.50 ± 2.44 and the CL/F [1, 6] was 145.7 ± 43.1 L/h. The Cmax/dose [1, 6] was 1.56 ± 0.81, the “Accumulation with multiple dosing” value [1] was “no accumulation” and the “Dose linearity of pharmacokinetic properties (AUC, Cmax)” value [1] was “linear”. The AUC(0-t) [1, 7] was 32.4 ± 9.7 ng·h/mL, the AUC(0-t) [1, 8] was 33 ± 13.1 ng·h/mL and the AUC(0-inf) [1, 7] was 33.7 ± 9.7 ng·h/mL. For the same molecule, the AUC(0-inf) [1, 8] was 38.3 ± 16.2 ng·h/mL, the Cmax [1, 7] was 8.04 ± 3.24 ng/mL and the Cmax [1, 8] was 7.78 ± 4.12 ng/mL. It also gave an MRT [1, 7] of 5.59 ± 1.15 h, an MRT [1, 8] of 7.15 ± 3.3 h and a half-life [1, 7] of 1.92 ± 0.34 h. It also gave a half-life [1, 8] of 2.57 ± 1.74 h, a Tmax [1, 7] of 4.36 ± 0.93 h and a Tmax [1, 8] of 5.07 ± 1.59 h. It also gave a Vd/F [1, 7] of 544 ± 241 L, a Vd/F [1, 8] of 603 ± 337 L and an AUC(0-t) [1, 9] of 79.1 ± 27.6 ng·h/mL. It also gave an AUC(0-inf) [1, 9] of 85.4 ± 27.8 ng·h/mL, a Cmax [1, 9] of 17.8 ± 9.21 ng/mL and an MRT [1, 9] of 6.43 ± 1.77 h. The half-life [1, 9] was 2.07 ± 0.68 h, the Tmax [1, 9] was 5.14 ± 1.7 h and the Vd/F [1, 9] was 438 ± 189 L. It also gave an AUC(0-t) [1, 10] of 158 ± 60.2 ng·h/mL, an AUC(0-inf) [1, 10] of 169 ± 62.9 ng·h/mL and a Cmax [1, 10] of 36.2 ± 17.1 ng/mL. It also gave an MRT [1, 10] of 6.39 ± 1.43 h, a half-life [1, 10] of 2.04 ± 0.68 h and a Tmax [1, 10] of 5 ± 1.52 h. The Vd/F [1, 10] was 456 ± 265 L, the “Effect of concomitant gemfibrozil on pharmacokinetic parameters (AUC, Cmax)” value ([2]; healthy subjects) was “significantly increased” and the CL/F [2, 11] was 218.4 ± 108.6 L/h. For the same molecule, the CL/F [2, 12] was 99.9 ± 48.4 L/h, the AUC(0-inf) [2, 13] was 33.1 ± 18.2 ng·h/mL and the Cmax [2, 13] was 6.79 ± 3.78 ng/mL. It also gave an MRT [2, 13] of 6.19 ± 1.38 h, a Vd/F [2, 13] of 644 ± 586 L and a half-life [2, 13] of 1.94 ± 0.75 h. For the same molecule, the AUC(0-t) [2, 13] was 31.1 ± 16.5 ng·h/mL and the Tmax [2, 14] was 4.85 ± 1.14 h.

In the case of `C/C=C/C[C@@H](C)C(=O)[C@H]1C(=O)N[C@@H](C(C)C)C(=O)N(C)CC(=O)N(C)[C@@H](CC(C)C)C(=O)N[C@@H](C(C)C)C(=O)N(C)[C@@H](CC(C)C)C(=O)N[C@@H](C)C(=O)N[C@H](C)C(=O)N(C)[C@@H](CC(C)C)C(=O)N(C)[C@@H](CC(C)C)C(=O)N(C)[C@@H](C(C)C)C(=O)N1C` [PSC833], the “Inhibition of P-gp activity (digoxin uptake)” value (P-gp) is reported as “highest inhibition”.

With `CC[C@H](C)C(=O)O[C@H]1C[C@@H](C)C=C2C=C[C@H](C)[C@H](CC[C@@H]3C[C@@H](O)CC(=O)O3)[C@H]21` [Pure lovastatin, lovastatin, reference compound] the IC50 (CYP2B6) was 15 ± 1.11 µM, the IC50 at 20 min (CYP2B6; human, human liver microsomes, probe bupropion) was 9 to 16 µM and the CL/F [1, 3] was 1339.5 ± 763.3 L/h. It also gave a CL/F [1, 4] of 1128.8 ± 624.4 L/h, a CL/F [1, 5] of 941.7 ± 453.5 L/h and a CL/F [1, 6] of 994.5 ± 548.8 L/h. The “Accumulation with multiple dosing” value [1] was “no accumulation”, the “Dose linearity of pharmacokinetic properties (AUC, Cmax)” value [1] was “linear” and the AUC(0-t) [1, 7] was 5.22 ± 2.6 ng·h/mL. The AUC(0-t) [1, 8] was 6.74 ± 3.27 ng·h/mL, the AUC(0-inf) [1, 7] was 5.71 ± 2.68 ng·h/mL and the AUC(0-inf) [1, 8] was 7.47 ± 3.44 ng·h/mL. The Cmax [1, 7] was 1.41 ± 0.69 ng/mL, the Cmax [1, 8] was 1.61 ± 0.8 ng/mL and the MRT [1, 7] was 4.81 ± 1.24 h. For the same molecule, the MRT [1, 8] was 5.55 ± 1.98 h, the half-life [1, 7] was 1.93 ± 0.43 h and the half-life [1, 8] was 2.36 ± 0.66 h. It also gave a Tmax [1, 7] of 3.39 ± 1.38 h, a Tmax [1, 8] of 3.46 ± 1.28 h and a Vd/F [1, 7] of 3570 ± 1800 L. It also gave a Vd/F [1, 8] of 3080 ± 1330 L, an AUC(0-t) [1, 9] of 13.4 ± 6.07 ng·h/mL and an AUC(0-inf) [1, 9] of 14.4 ± 6.3 ng·h/mL. The Cmax [1, 9] was 3.36 ± 1.81 ng/mL, the MRT [1, 9] was 5.27 ± 1.42 h and the half-life [1, 9] was 2.36 ± 0.68 h. It also gave a Tmax [1, 9] of 3.29 ± 1.35 h, a Vd/F [1, 9] of 3380 ± 2050 L and an AUC(0-t) [1, 10] of 24.9 ± 14.2 ng·h/mL. It also gave an AUC(0-inf) [1, 10] of 26.8 ± 15.4 ng·h/mL, a Cmax [1, 10] of 5.7 ± 3.42 ng/mL and an MRT [1, 10] of 5.51 ± 1.11 h. It also gave a half-life [1, 10] of 2.42 ± 0.45 h, a Tmax [1, 10] of 3.25 ± 0.78 h and a Vd/F [1, 10] of 3860 ± 1960 L. For the same molecule, the “Effect of concomitant gemfibrozil on pharmacokinetic parameters (AUC, Cmax)” value ([2]; healthy subjects) was “no significant effects”, the CL/F [2, 11] was 1374.0 ± 782.6 L/h and the CL/F [2, 12] was 1372.5 ± 763.8 L/h. For the same molecule, the Tmax [2, 12] was 3.00 ± 1.37 h, the AUC(0-inf) [2, 13] was 5.68 ± 3.48 ng·h/mL and the Cmax [2, 13] was 1.53 ± 1.45 ng/mL. For the same molecule, the MRT [2, 13] was 4.87 ± 1.28 h, the Vd/F [2, 13] was 4000 ± 2600 L and the half-life [2, 13] was 2.12 ± 0.7 h. The AUC(0-t) [2, 13] was 5 ± 3.29 ng·h/mL, the Tmax [2, 14] was 3.08 ± 1.17 h and the IC50 (CYP2D6) was > 50 µM. For the same molecule, the IC50 (CYP1A2) was > 100 µM.
